# Assays:
# [1] = system: carrageenan-induced swelling in rat paws; test: Rat paw edema test; assay type: in vivo, Sprague-Dawley rats; settings: 100 mg/kg intraperitoneal, first hour
# Experimental: A second in vivo bioassay for anti-inflammatory activity was conducted in which the action of the tripeptide was compared to that of hydrocortisone. In this assay, the two agents were given at similar doses and tested for their independent ability to inhibit carrageenan-induced swelling in rat paws. This assay, the rat paw edema test, was conducted generally as it is typically performed in the art, for example, as described by Winter et al. (1962), Proc. Soc. Exp. Biol. Med., 111:544 or in U.S. Pat. No. 4,150,137. Briefly, the assay was performed as follows. Each of twenty-four male Sprague-Dawley rats was assigned to one of four groups: Tripeptide treatment and controls (matched according to body weight and initial paw volume), hydrocortisone treatment and matched controls. The volume of the right rear paw of the test and control animals was determined using standard procedures and a mercury displacement volumetric technique. […] One hour later 0.5 ml of 1% lambda carrageenan in saline solution was injected into the right rear paw of the animals and the paw volume was again recorded (baseline measure). For comparison of the effects of the two treatments, paw volume of experimental animals measured at hourly intervals was expressed as a percentage of the volume change of their respective matched controls.
# [2] = system: TNF-α; test: TNF-α production by activated N9 microglia; assay type: cell-based, murine; settings: microglia stimulated with LPS+IFN-γ for 24 hr, micromolar concentrations
# Experimental: (§1) The N9 clone of murine microglial cells was obtained by immortalization of embryonic brain cultures with the 3RV retrovirus carrying an activated v-myconcogene. N9 cells were cultured in T-75-cm^2 culture flasks (Corning, Cambridge, Mass.) and maintained at 37° C. in a humidified incubator under 5% CO2 atmosphere in RPMI 1640 supplemented with 2 mM L-glutamine, 50 U/mL penicillin G, 50 μg/mL streptomycin sulfate (GIBCO-BBL, Paisley, UK), and 10% heat-inactivated fetal bovine serum (FBS, Hyclone Lab, Inc., Logan, Utah) until experiments were performed. Cells were used between the first and the tenth passage.
# (§2) Sub-confluent microglial cells were washed twice with phosphate-buffered saline (PBS) and incubated with trypsin 0.025% and ethylenediaminetetraacetate (EDTA) 0.02% without calcium and magnesium for 3 min. at 37° C. to detach the cells from the culture flask. Cells were then resuspended in medium and incubated in 24-well tissue-culture plates at a concentration of 2×10^5 cells/mL for 16 h in a humidified incubator (37° C., 5% CO2). Growth medium was removed and cell monolayers were stimulated with 10 ng/mL lipopolysaccharide (LPS, from Escherichia coli 055:B5, Sigma Chemical Co., St. Louis, Mo.) plus 1 U/ml, murine IFN-γ (Sigma). To test effects of melanocortin peptides, concentrations (1, 10, 25, 50 and 100 μM) of α-MSH (1-13), α-MSH (11-13), and ACTH (1-24) (Sigma) were dissolved in medium and added to wells 10 min before treatment with LPS+IFN-γ. […] Viability of cells was assessed by trypan blue exclusion for each experimental condition; it was consistently >98%. […]
# (§3) TNF-α bioactivity was measured in supernatants of cell cultures by standard cytotoxicity assay using L929 cells and recombinant human TNF-α (Sigma) as standard. […] IL-6 was measured using a commercial murine enzyme-linked immunosorbent assay (ELISA: RPN 2714, Amersham, Little Chalfont, UK).
# (§4) Effects of melanocortin peptides on cytokine and NO production were evaluated by repeated measures analysis of variance followed by Dunnet's test for specific comparisons. […]
# [3] = system: IL-6; test: IL-6 production by activated N9 microglia; assay type: cell-based, murine; settings: microglia stimulated with LPS+IFN-γ for 24 hr, micromolar concentrations
# Experimental: as §1, §2, §3, §4
# [4] = system: NO2^−; test: Nitrite (NO) production by activated N9 microglia; assay type: cell-based, murine; settings: microglia stimulated with LPS+IFN-γ for 24 hr, micromolar concentrations
# Experimental: as §1, §2
# NO is rapidly oxidized to nitrite (NO2) in culture medium, and nitrite concentration is an indicator of NO production. […] Samples were incubated at room temperature for 10 min and absorbency was measured at 540 nm with the use of a microplate reader. Nitrite concentrations were calculated using a sodium nitrite standard curve.
# as §4
# [5] = system: TNF-α and iNOS mRNA; test: Northern blot of TNF-α and iNOS mRNA in activated microglia; assay type: cell-based, murine
# Experimental: Total cellular RNA was extracted from 10^6 adherent microglial cells plated in six-well tissue culture plates (Corning). Electrophoresis of RNA samples (10 μg/lane) was performed in 1% agarose/2.2 M formaldehyde gels and the gels subsequently blotted onto nylon filters by capillary action and baked for 2 h before prehybridization. The cDNA fragments encoding murine TNF-α and mouse macrophage iNOS were ^32P-labeled using the Ready-To-Go DNA Labeling Kit (Pharmacia, Uppsala, Sweden) before hybridization of nylon filters and autoradiography. Blots were subsequently rehybridized with human glyceraldehyde-3-phosphate dehydrogenase (G-3-PDH) cDNA probe as an internal control (Clontech Laboratories, Inc., Palo Alto, Calif.).
Molecule,inhibition of paw swelling in the first hour [1],reduction of production of TNF-α [2] [%],reduction of production of IL-6 [3] [%],reduction of production of NO2^− [4] [%],mRNA for TNF-α and iNOS (Northern blot) [5]
"C[C@]12CCC(=O)C=C1CC[C@@H]1[C@@H]2[C@@H](O)C[C@@]2(C)[C@H]1CC[C@]2(O)C(=O)CO [hydrocortisone, reference compound]",markedly inhibited swelling,–,–,–,–
"ACTH (1-24): melanocortin peptide ACTH (1-24) (SYSMEHFRWGKPVGKKRRPVKVYP; Corticotropin; UniProt P01189 138-161, looked up, fragment) [reference compound]",–,38,65,41,inhibition of mRNA transaction for TNF-α and iNOS

# Source: patent US6969590B2, “Use of a polypeptide for treatment of pruritus in animals” (Zengen, Inc., priority 2001, dated 2005)
